{"source": "paper PMC11879280", "about": "“Antimicrobial activity of peptoids against Metallo-β-lactamase-producing Klebsiella pneumoniae, Acinetobacter baumannii, Pseudomonas aeruginosa, and other WHO priority pathogens, including Candida auris” (Journal of Applied Microbiology, 2025)", "key": {"[1]": {"system": "C. auris CBS12373", "assay": "Checkerboard microdilution synergy test", "type": "cell-based, Candida auris", "protocol": "(§1) The checkerboard microdilution test was performed to determine the fractional inhibitory concentration (FIC) of selected antimicrobials and assess whether the combination had synergistic, antagonistic, or indifferent effects (Anon [2016]) against strains of K. pneumoniae or C. auris. […] Additionally, a strain susceptible to ciprofloxacin was tested to observe the outcome of its combination with TM8 as a representative case from susceptible isolates. […] Then, 10 µl of bacteria (5 × 10^6 CFU ml^−1) or C. auris (2.5 × 10^4 CFU ml^−1) were added to each well, except for the sterility control well. […] The sterility control wells contained only MHB (or RPMI in case of C. auris), and the growth control contained 110 µl of microbial inoculum with no antimicrobials. Subsequently, the plates were incubated for 18- 24 hours at 36 ± 1 °C.\n(§2) The FIC for each combination interaction was calculated as follows:\n(§3) Then, the summation of FIC (ƩFIC) was calculated for each antimicrobial combination as follows: ƩFIC = FICA + FICB. The results were interpretated as follows: Synergy if ƩFIC ≤ 0.5; Additive if 0.5<ƩFIC ≤ 1; Indifference if […] ≤ 4; and Antagonism if ƩFIC > 4 (Odds [2003]). All antimicrobial synergy experiments were repeated in at least two independent runs."}, "[2]": {"system": "C. auris CBS10913", "assay": "Checkerboard microdilution synergy test", "type": "cell-based, Candida auris", "protocol": "as §1, §2, §3"}, "[3]": {"system": "S. aureus, K. pneumoniae, P. aeruginosa, and En. cloacae biofilm", "settings": "ref Nielsen et al. [2022]; cited from earlier work", "description": "Another way microbes can acquire tolerance and become resistant to antimicrobials is by the production of biofilms. In biofilms, microbes switch from planktonic state to sessile form, where they are encased in an extracellular polymeric substance matrix, thereby being protected from stressful environmental conditions (Di Fermo et al. [2024]). Most ESKAPEE pathogens and C. auris form antimicrobial tolerant biofilms associated with device-associated infections (Kean and Ramage [2019], Sarkar et al. [2024]). The antibiofilm activity of some of these peptoids has already been studied against ESKAP ..."}, "[4]": {"system": "C. auris CBS12373 biofilm", "type": "cell-based, Candida auris", "settings": "for Mature biofilm inhibition, blank corrected 570 nm, av. of readings: MTT absorbance", "protocol": "To assess disruption of mature biofilms, 2 × 10^5 cells were cultured for 2 h in 96-well flat bottom microtiter plates at 37°C, washed, then incubated for 48 h in fresh media to form mature biofilm. […] For each activity test, the metabolic activities of the yeast cells in biofilms were measured by MTT reduction assay after washing the disrupted biofilm with PBS (Srivastava and Ahmad [2020])."}, "[5]": {"system": "C. auris CBS12373 biofilm", "assay": "Initial biofilm inhibition, crystal violet assay", "type": "cell-based, Candida auris", "settings": "crystal violet staining", "protocol": "Another set of experiments was conducted under similar conditions similar to those used for MTT assay."}, "[6]": {"system": "C. auris CBS 10913", "assay": "Time-kill kinetics", "type": "cell-based, Candida auris", "settings": "RPMI, 35°C, three independent runs", "protocol": "Killing kinetics (time-kill) were evaluated as described previously (Lum et al. [2015]). […] At set intervals (0, 0.5, 1, 1.5, 2, 2.5, 3, 4, 5, 6, 12, and 24 h), 100 µl samples were serially diluted in PBS and plated on Sabouraud dextrose agar (SDA; Oxoid, UK) with 0.5% polysorbate 80 (Chem-supply, SA, Australia). CFUs were enumerated, with a yeast growth control processed similarly. Results were presented from three independent runs."}, "[7]": {"settings": "as low as; ref Nielsen et al. [2022]; cited from earlier work", "description": "Lipopeptoids can self-assemble into micellar macromolecules due to the hydrophobic tail domains driven by the intermolecular hydrophobic interactions. […] In a ..."}, "[8]": {"system": "Gram-positive bacteria (Enteroc. faecalis and S. aureus)", "in_short": "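Cation-adjusted MHB for antibiotics, plain MHB for peptidomimetics; 5 × 10^5 CFU ml^−1; 16–20 h at 37°C, 120 rpm. Geometric mean MIC across pathogens calculated for peptoids.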"}, "[9]": {"system": "C. auris CBS12373 biofilm", "assay": "Anti-adherence (biofilm prevention), MTT reduction assay", "type": "cell-based, Candida auris", "protocol": "Finally, 3-(4,5-Dimethylthiazol 2-yl)-2,5-diphenyltetrazolium bromide (MTT) reduction assay was performed to observe the metabolic activities of C. auris."}, "[10]": {"system": "C. auris CBS12373 biofilm", "assay": "Initial biofilm inhibition, MTT reduction assay", "type": "cell-based, Candida auris"}, "[11]": {"system": "C. auris CBS 10913", "assay": "Sorbitol protection assay", "type": "cell-based, Candida auris", "settings": "CBS10913", "description": "Caspofungin served as a positive control for the assay (Leite et al. [2014])."}, "[12]": {"system": "MDR ESKAPE pathogens", "settings": "ref Nielsen et al. [2022]; cited from earlier work", "description": "TM8, TM15, and TM19 featured terminal alkyl tails of either N-decyl or N-tridecyl, while all of them contained chiral aromatic Nspe along with NLys residues. Similarly, TM2, TM4, TM12, TM14, and TM19 w ... || Lipopeptoids can self-assemble into micellar macromolecules due to the hydrophobic tail domains driven by the intermolecular hydrophobic interactions. […] In a ..."}}, "note": "Where two headings read alike, the source gives them in different places. Square brackets hold non-standard residues; d marks the D form. Peptide text beside a SMILES is read from it. Nspe = C[C@H](NCC(=O)O)c1ccccc1; NDecylGly = CCCCCCCCCCNCC(=O)O; Nlys = NCCCCNCC(=O)O"}
{"smiles": "CCCCCCCCCCNCC(=O)N(CCCCN)CC(=O)N(CC(=O)N(CC(=O)N(CCCCN)CC(=O)N(CC(=O)N(CC(N)=O)[C@@H](C)c1ccccc1)[C@@H](C)c1ccccc1)[C@@H](C)c1ccccc1)[C@@H](C)c1ccccc1", "note": "[TM8] (H-[NDecylGly][Nlys][Nspe][Nspe][Nlys][Nspe][Nspe]-NH2)", "values": [{"measurement": "MIC of TM8 (alone, checkerboard)", "setting": "[1]", "value": 3.9, "unit": "µg/mL"}, {"measurement": "FICTM8", "setting": "[1]; TM8 with Fluconazole", "value": 0.5}, {"measurement": "MF of TM8 (modulation factor)", "setting": "[1]; TM8 with Fluconazole", "value": 2}, {"measurement": "ƩFIC", "setting": "[1]; TM8 with Fluconazole", "value": 0.563}, {"measurement": "MIC of TM8 (alone, checkerboard)", "setting": "[2]", "value": 7.813, "unit": "µg/mL"}, {"measurement": "FICTM8", "setting": "[2]; TM8 with Fluconazole", "value": 0.5}, {"measurement": "MF of TM8 (modulation factor)", "setting": "[2]; TM8 with Fluconazole", "value": 2}, {"measurement": "ƩFIC", "setting": "[2]; TM8 with Fluconazole", "value": 0.563}, {"measurement": "Concentration with significant inhibition of biofilm formation", "setting": "[3]", "value": 1.56, "unit": "µg/mL"}, {"measurement": "Biofilm tolerance factor-eradication (MBEC/MIC)", "setting": "[4]; C. auris CBS12373, MTT", "value": 4}, {"measurement": "Mature biofilm MBEC", "setting": "[4]; CBS12373 biofilm, 48 h", "value": 62.5, "unit": "µg/mL"}, {"measurement": "Mature biofilm inhibition, blank corrected 570 nm, av. of readings", "setting": "[4]; agent at 0.976562 (growth control 1.115)", "value": 1.684}, {"measurement": "Mature biofilm inhibition, blank corrected 570 nm, av. of readings", "setting": "[4]; agent at 1.95312 (growth control 1.115)", "value": 1.307}, {"measurement": "Mature biofilm inhibition, blank corrected 570 nm, av. of readings", "setting": "[4]; agent at 3.90625 (growth control 1.115)", "value": 0.871}, {"measurement": "Mature biofilm inhibition, blank corrected 570 nm, av. of readings", "setting": "[4]; agent at 7.8125 (growth control 1.115)", "value": 0.456}, {"measurement": "Mature biofilm inhibition, blank corrected 570 nm, av. of readings", "setting": "[4]; agent at 15.625 (growth control 1.115)", "value": 0.49}, {"measurement": "Mature biofilm inhibition, blank corrected 570 nm, av. of readings", "setting": "[4]; agent at 31.25 (growth control 1.115)", "value": 0.129}, {"measurement": "Mature biofilm inhibition, blank corrected 570 nm, av. of readings", "setting": "[4]; agent at 62.5 (growth control 1.115)", "value": 0}, {"measurement": "Mature biofilm inhibition, blank corrected 570 nm, av. of readings", "setting": "[4]; agent at 125 (growth control 1.115)", "value": -0.0001}, {"measurement": "Mature biofilm inhibition, blank corrected 570 nm, av. of readings", "setting": "[4]; agent at 250 (growth control 1.115)", "value": 0.02}, {"measurement": "Mature biofilm inhibition, blank corrected 570 nm, av. of readings", "setting": "[4]; agent at 500 (growth control 1.115)", "value": 0.02}, {"measurement": "MBIC for initial biofilm", "setting": "[5]", "value": 31.25, "unit": "µg/mL"}, {"measurement": "Time to 3-log reduction", "setting": "[6]; 1× MIC", "value": "≤ 6", "unit": "h"}, {"measurement": "Time to complete killing of the yeast cells", "setting": "[6]; 1× MIC", "value": "≤ 12", "unit": "h"}, {"measurement": "Time to fungicidal activity", "setting": "[6]; 4× MIC", "value": "≤ 2", "unit": "h"}, {"measurement": "Concentration at which self-assembly into an ellipsoidal form is found", "setting": "[7]", "value": 1, "unit": "µg/mL"}, {"measurement": "MIC range", "setting": "[8]", "value": "3.9 to 7.8", "unit": "µg/mL"}, {"measurement": "Biofilm tolerance factor-prevention (BPC/MIC)", "setting": "[9]", "value": 8}, {"measurement": "Anti-adherence (BPC)", "setting": "[9]; 2 h adhesion with agent, 48 h growth, ≥90% reduction", "value": 125, "unit": "µg/mL"}, {"measurement": "Biofilm tolerance factor-inhibition (MBIC/MIC)", "setting": "[10]", "value": 2}, {"measurement": "MIC in the presence of sorbitol", "setting": "[11]", "value": 7.8, "unit": "µg/mL"}, {"measurement": "MIC without sorbitol", "setting": "[11]", "value": 7.8, "unit": "µg/mL"}, {"measurement": "MIC against MDR ESKAPE pathogens", "setting": "[12]", "value": "< 13", "unit": "µg/mL"}]}
